Data published in patent US20170369475A1, “Flibanserin Hydrate” (Sandoz AG, priority 2016, published 2017).
“Also recorded” adds a separate entry of the source.

Experiment: Gravimetric moisture sorption (GMS)
Type: physicochemical
Settings: 25±0.1° C.
Description: Moisture sorption isotherms were recorded with an SPSx-1 μ moisture sorption analyzer (ProUmid, Ulm). The measurement cycle was started at ambient relative humidity (RH) of 30%. RH was then decreased to 5% in 5% steps, followed by a further decrease to 3% and to 0%. […] Finally, RH was increased to ambient relative humidity of 30% in 5% steps.
The time per step was set to a minimum of 2 hours and a maximum of 6 hours. If an equilibrium condition with a constant mass of ±0.01% within 1 hour was reached before the maximum time for all examined samples the sequential humidity step was applied before the maximum time of 6 hours. If no equilibrium was achieved the consecutive humidity step was applied after the maximum time of 6 hours. The temperature was 25±0.1° C.
Therefore, flibanserin hydrate of the present invention can be assigned as being non-hygroscopic.

O=c1[nH]c2ccccc2n1CCN1CCN(c2cccc(C(F)(F)F)c2)CC1 [flibanserin hydrate]
hysteresis between sorption and desorption isotherms (GMS, 0 to 95% RH): no significant hysteresis | hygroscopicity / water uptake or loss (in words) (GMS, 0 to 95% RH, hydrate): neither significant water uptake nor loss; also recorded: non-hygroscopic | physical form after the GMS experiment (PXRD) (after sorption/desorption cycle 0-95-0% RH): same PXRD | mass difference between 0 and 95% RH (equilibrium mass change, GMS) (sorption/desorption cycle 0-95% RH): 0.2 weight %
